Measured values published in patent US10946024B2, “Method for treating cancer” (Epizyme, Inc., priority 2014, dated 2021).

Columns and labels:
[1] = tested on: synovial sarcoma PDX (CTG-0771, CTG-0331); assay: Tumor volume in mice bearing patient-derived xenografts (PDX) of synovial sarcoma, 35 days; type: in vivo; details: oral 125, 250 or 500/400 mg/kg for 35 days
Procedure: FIGS. 11A and 11C show mean in vivo tumor volumes for athymic nude mice bearing one of two different PDX of synovial sarcoma tumors. FIGS. 11B and 11D show percent survival for mice bearing a PDX. Mice were dosed with either vehicle (oral for 35 days), Compound A (oral: 125 mg/kg, 250 mg/kg, or 500/400 mg/kg for 35 days) or Doxorubicin (iv: 3 mg/kg, once a week for 3 weeks). FIGS. 11A and 11B show data from mice bearing PDX from high-grade spindle cell sarcoma. FIGS. 11C and 11D show data from mice bearing PDX.
Immunocompromised female mice (Taconic; NCr nude) were implanted unilaterally in the flank region with tumor fragments (5 mm×5 mm×5 mm) harvested from donor animals, each implanted from a specific passage lot (CTG-0331 and CTG-0771 at P4). When tumors reached approximately 100-300 mm^3, animals were matched by tumor volume into treatment and control groups and dosing initiated. Vehicle (0.5% NaCMC plus 0.1% Tween 80 in water) or Compound A (500 mg/kg for CTG-0331 and 500 mg/kg decreased to 400 mg/kg on Day 17 for CTG-0771) was administered orally BID at a dose volume of 10 μL/g for 35 days. Tumor size was measured twice weekly. On Day 35, up to 5 mice with the largest tumor burden were euthanized for tumor collection 3 hours after final dose, and flash frozen. […]

[2] = tested on: H3K27me3/total H3 in HS-SY-II cells; assay: H3K27 methylation alterations by ELISA of extracted histones; type: cell-based, human; details: 96 hours
Procedure: (§1) HS-SY-II and SW982 cells were treated with either DMSO or Compound A starting at 40 nmol/L and decreasing in fourfold dilutions for 96 hours. Cells were washed by ice cold PBS, harvested by cell scraper, and lysed with 100 μl of nuclear extraction buffer (10 mM Tris-HCl, 10 mM MgCl2, 25 mM KCl, 1% Triton X-100, 8.6% Sucrose, plus 1× Halt Protease inhibitor cocktail (1861281, Thermo Scientific). Nuclei were collected by centrifugation at 600 g for 5 minutes at 4° C. and washed once with ice cold PBS. Supernatant was removed and histones extracted for one hour with 100 μL of 0.4 N cold sulfuric acid. Extracts were clarified by centrifugation at 10,000 g for 10 minutes at 4° C. and transferred to a fresh microcentrifuge tube containing 1 mL of ice cold acetone. Histones were precipitated at −20° C. for overnight, pelleted by centrifugation at 10,000 g for 10 minutes and resuspended in 100 μl of water. Histones were quantified using the BCA protein assay (23225, Pierce). […] Subsequently, the developed colors in the wells were measured using a plate spectrophotometer (SpectraMax 250, Molecular Devices) at 450 nm (reference wavelength 650 nm). The H3K27me3 levels were adjusted to total histone H3, and expressed as fold changes to DMSO control.
(§2) The range of IC50 values (two independent experiments), shown in FIG. 6B, were determined by GraphPad Prism (GraphPad Software).

[3] = tested on: H3K27me3/total H3 in SW982 cells; assay: as above; type: cell-based, human; details: SW982, 96 hours
Procedure: as §1, §2

CCN(c1cc(-c2ccc(CN3CCOCC3)cc2)cc(C(=O)NCc2c(C)cc(C)[nH]c2=O)c1C)C1CCOCC1 [Compound A]
tumor volume [1]: dose-related tumor volume decrease
ratio of H3K27me3/total H3 (ratio to control) [2]: decreased ratios
ratio of H3K27me3/total H3 (ratio to control) [3]: decreased ratios
